This is an account of results in patent US4421912A, “Cephalosporin derivatives” (Takeda Chemical Industries, Ltd., priority 1973, dated 1983).

In brackets after ≈: the same amount, converted by molar mass. Like-named read-outs stand apart in the source and are kept apart here. A value given as a limit tells only on which side of the number the result lay.

Common to all, as to assay: Antibacterial spectra, agar dilution method
Common to all, as to assay type: cell-based
For orientation: In agar dilution the substance is mixed into plates at graded concentrations.

One assay deals with S. aureus 209P. The note with it: for MIC: Staphylococcus aureus, 209P.
Source text: (§1) (mcg/ml., agar dilution method)
as §1
(§2) (mcg/ml, agar dilution method)
(§3) (mcg./ml., agar dilution method)

The subject of a further assay is E. coli 0-111.
Source text: as §1, §1, §2, §3

The subject of another assay is S. aureus 1840.
Source text: as §1, §1, §2, §3

The subject of a further assay is K. pneumoniae DT. The note with it: Klebsiella pneumoniae.
The subject of a further assay is E. coli NIHJ JC-2. The note with it: Escherichia coli.
Source text: as §1, §1, §2, §3

The next assay concerns E. coli T-7. The note with it: Escherichia coli. The text has this: (§4) |(mcg./ml., agar dilution method)
Another assay has as its system P. vulgaris IFO 3988. The note with it: Proteus vulgaris, IFO3988; P. vulgaris IFO 3988; agar dilution method; Table 11; read-out: Antibacterial spectra.
Source text: as §4

The test system of another assay is P. morganii Eb53. The note with it: Morganella morganii; P. morganii Eb53; agar dilution method; Table 11; read-out: Antibacterial spectra.
Source text: as §2, §3

Setting [1] is: read-out: Antibacterial spectra, S. aureus 209P, tables in the Examples.
The mark [2] stands for this setting: Escherichia coli, 0111, E. coli 0-111, tables in the Examples.
Setting [3] is: Staphylococcus aureus, 1840, read-out: Antibacterial spectra, S. aureus 1840, tables in the Examples.
Where [4] appears, read: read-out: Antibacterial spectra, S. aureus 209P, Table 11.
Setting [5] is: Escherichia coli, 0111, E. coli 0-111, Table 11.
The mark [6] stands for this setting: NIHJJC2, read-out: Antibacterial spectra, E. coli NIHJ JC-2, Table 11.
[7] abbreviates: Staphylococcus aureus, 1840, read-out: Antibacterial spectra, S. aureus 1840, Table 11.
The mark [8] stands for this setting: T7, read-out: Antibacterial spectra.
Setting [9] is: NIHJJC2, E. coli NIHJ JC-2, Table 11, read-out: Antibacterial spectra.

As for `O=C(Cc1csc(=O)[nH]1)NC1C(=O)N2C(C(=O)O)=C(CSc3nncs3)CS[C@H]12` (some centres unmarked) [Example 4, 7-[2-(2-oxo-4-thiazolin-4-yl)acetamido]-3-(1,3,4-thiadiazol-2-yl)thiomethyl-3-cephem-4-carboxylic acid], the MIC was below 0.78 µg/mL in the assay with S. aureus 209P (setting [1]), 1.56 µg/mL (≈ 3.31 µM) in the assay on E. coli 0-111 (setting [2]), below 0.78 µg/mL in the assay with S. aureus 1840 (setting [3]) and 1.56 µg/mL (≈ 3.31 µM) against K. pneumoniae DT (tables in the Examples).
For the compound `Cn1ccnc1SCC1=C(C(=O)O)N2C(=O)C(NC(=O)Cc3csc(N)n3)C2SC1` (centres unmarked) [Compound 44], the MIC with S. aureus 209P (setting [4]) was 0.39 µg/mL (≈ 0.836 µM); in the assay on E. coli 0-111 (setting [5]), 0.39 µg/mL (≈ 0.836 µM); in the assay with E. coli NIHJ JC-2 (setting [6]) it was 0.78 µg/mL (≈ 1.67 µM); in the assay on S. aureus 1840 (setting [7]) it was 1.56 µg/mL (≈ 3.34 µM); in the assay with E. coli T-7 (setting [8]), 6.25 µg/mL (≈ 13.4 µM); with P. vulgaris IFO 3988, 0.39 µg/mL (≈ 0.836 µM). The compound also showed an MIC against K. pneumoniae DT (Table 11) of 0.39 µg/mL (≈ 0.836 µM).
`Cc1nnc(SCC2=C(C(=O)O)N3C(=O)C(NC(=O)Cc4csc(N)n4)C3SC2)o1` (centres unmarked) [Compound 38]: the MIC stood at 0.39 µg/mL (≈ 0.832 µM) in the assay on S. aureus 209P (setting [4]); 0.39 µg/mL (≈ 0.832 µM) in the assay with E. coli 0-111 (setting [5]); 1.56 µg/mL (≈ 3.33 µM) in the assay with E. coli NIHJ JC-2 (setting [9]); 0.78 µg/mL (≈ 1.66 µM) in the assay with S. aureus 1840 (setting [7]); 0.39 µg/mL (≈ 0.832 µM) in the assay with K. pneumoniae DT (Table 11); 25 µg/mL (≈ 53.4 µM) in the assay with P. morganii Eb53.
With `Cn1nnnc1SCC1=C(C(=O)O)N2C(=O)C(NC(=O)Cc3csc(=S)[nH]3)C2SC1` (centres unmarked) [Compound 64], the MIC in the assay with S. aureus 209P (setting [4]) is below 0.78 µg/mL; against E. coli 0-111 (setting [5]), 1.56 µg/mL (≈ 3.21 µM); with S. aureus 1840 (setting [7]), 1.56 µg/mL (≈ 3.21 µM); against K. pneumoniae DT (Table 11) it was below 0.78 µg/mL.
For the compound `Cc1nnc(SCC2=C(C(=O)O)N3C(=O)C(NC(=O)Cc4csc(=O)[nH]4)[C@H]3SC2)s1` (some centres unmarked) [Compound 55, 7-[2-(2-oxo-4-thiazolin-4-yl)acetamido]-3-(5-methyl-1,3,4-thiadiazol-2-yl)thiomethyl-3-cephem-4-carboxylic acid], the MIC in the assay with S. aureus 209P (setting [4]) was determined as 0.2 µg/mL (≈ 0.412 µM); against E. coli 0-111 (setting [5]), 0.78 µg/mL (≈ 1.61 µM); with E. coli NIHJ JC-2 (setting [9]), 1.56 µg/mL (≈ 3.21 µM); in the assay on S. aureus 1840 (setting [7]), 0.78 µg/mL (≈ 1.61 µM); against K. pneumoniae DT (Table 11) it was 1.56 µg/mL (≈ 3.21 µM).
Consider `Nc1nc(CC(=O)NC2C(=O)N3C(C(=O)O)=C(CSc4nnc[nH]4)CSC23)cs1` (centres unmarked) [Compound 41], for which the MIC amounted to 0.39 µg/mL (≈ 0.86 µM) in the assay on S. aureus 209P (setting [4]); 0.78 µg/mL (≈ 1.72 µM) in the assay with E. coli 0-111 (setting [5]); 0.78 µg/mL (≈ 1.72 µM) in the assay with E. coli NIHJ JC-2 (setting [6]); 0.78 µg/mL (≈ 1.72 µM) in the assay on S. aureus 1840 (setting [7]); 0.2 µg/mL (≈ 0.441 µM) against K. pneumoniae DT (Table 11); 25 µg/mL (≈ 55.1 µM) with P. morganii Eb53.
With `CC(=O)OCC1=C(C(=O)[O-])N2C(=O)C(NC(=O)Cc3csc(=S)[nH]3)[C@H]2SC1.[Na+]` (some centres unmarked) [Example 21, sodium 7-[2-(2-thioxo-4-thiazolin-4-yl)-acetamido]-3-acetoxymethyl-3-cephem-4-carboxylate], the Antibacterial spectra was below 0.78 µg/mL in the assay on S. aureus 209P (S. aureus 209P, tables in the Examples) and 1.56 µg/mL with S. aureus 1840 (S. aureus 1840, tables in the Examples).
Consider `Nc1nc(CC(=O)NC2C(=O)N3C(C(=O)O)=C(CSc4nnc(C(F)(F)F)s4)CSC23)cs1` (centres unmarked) [Compound 45], for which the MIC was at most 0.2 µg/mL in the assay with S. aureus 209P (setting [4]); 0.78 µg/mL (≈ 1.45 µM) against E. coli 0-111 (setting [5]); 3.13 µg/mL (≈ 5.81 µM) in the assay on E. coli NIHJ JC-2 (setting [9]); 0.78 µg/mL (≈ 1.45 µM) in the assay on S. aureus 1840 (setting [7]); 25 µg/mL (≈ 46.4 µM) with E. coli T-7 (T7, E. coli T-7, agar dilution method, Table 11, read-out: Antibacterial spectra); 0.78 µg/mL (≈ 1.45 µM) with P. vulgaris IFO 3988. The MIC in the assay on K. pneumoniae DT (Table 11) was 0.78 µg/mL (≈ 1.45 µM).
For the compound `Cc1csc(SCC2=C(C(=O)O)N3C(=O)C(NC(=O)Cc4csc(N)n4)C3SC2)n1` (centres unmarked) [Compound 47], the MIC in the assay on S. aureus 209P (setting [4]) is at most 0.2 µg/mL; in the assay with E. coli 0-111 (setting [5]), 0.78 µg/mL (≈ 1.61 µM); in the assay on E. coli NIHJ JC-2 (setting [9]), 1.56 µg/mL (≈ 3.23 µM); with S. aureus 1840 (setting [7]) it was 0.78 µg/mL (≈ 1.61 µM); in the assay with E. coli T-7 (setting [8]) it was 12.5 µg/mL (≈ 25.8 µM); in the assay with P. vulgaris IFO 3988, 0.39 µg/mL (≈ 0.806 µM). Also, in the assay on K. pneumoniae DT (Table 11), the MIC worked out at 0.39 µg/mL (≈ 0.806 µM).
Turning to `Cn1nnnc1SCC1=C(C(=O)O)N2C(=O)C(NC(=O)Cc3csc(=O)[nH]3)[C@H]2SC1` (some centres unmarked) [Example 2, 7-[2-(2-oxo-4-thiazolin-4-yl)acetamido]-3-(1-methyltetrazol-5-yl)thiomethyl-3-cephem-4-carboxylic acid], the MIC with S. aureus 209P (setting [1]) was below 0.78 µg/mL; in the assay with E. coli 0-111 (setting [2]) it was below 0.78 µg/mL; with E. coli NIHJ JC-2 (NIHJJC2, read-out: Antibacterial spectra, E. coli NIHJ JC-2, tables in the Examples), below 0.78 µg/mL; in the assay with S. aureus 1840 (setting [3]), below 0.78 µg/mL; against K. pneumoniae DT (tables in the Examples), below 0.78 µg/mL.
